Measured values published in patent US6358885B1, “Substituted phenylheterocyclic herbicides” (Mississippi State University, priority 1992, dated 2002).

Tests used:
barley = assay: Test B preemergence/postemergence greenhouse plant response rating 0 to 10; type: in vivo, Hordeum vulgare; details: 0 to 10 scale
Method in brief: (§1)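 Test chemicals, dissolved in a non-phytotoxic solvent, were applied to soil at planting and, at the same time, over foliage of seedlings at the one to four leaf stage.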

barnyardgrass = assay: as above; type: in vivo, Echinochloa crus-galli; details: 0 to 10 scale
Method in brief: as §1

chickweed [1] = assay: as above; type: in vivo, Stellaria media; details: 0 to 10 scale
Method in brief: as §1

corn = assay: as above; type: in vivo, Zea mays; details: 0 to 10 scale
Method in brief: as §1

crabgrass [2] = assay: as above; type: in vivo, Digitaria spp.; details: 0 to 10 scale
Method in brief: as §1

giant foxtail [3] = assay: as above; type: in vivo, Setaria faberii; details: 0 to 10 scale
Method in brief: as §1

rape = assay: as above; type: in vivo, Brassica napus; details: 0 to 10 scale
Method in brief: as §1

sorghum = assay: as above; type: in vivo, Sorghum bicolor; details: 0 to 10 scale
Method in brief: as §1

wheat = assay: as above; type: in vivo, Triticum aestivum; details: 0 to 10 scale
Method in brief: as §1

bedstraw = assay: Test C preemergence/postemergence greenhouse plant response rating 0 to 100; type: in vivo, Galium aparine; details: POSTEMERGENCE; for Plant response rating, Bedstraw: 0 to 100 scale
Method in brief: (§2)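 Compounds in non-phytotoxic solvent applied preemergence to sandy loam one day after planting, postemergence at the 1–4 leaf stage, or to ~2.5 cm floodwater over silt loam.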

chickweed [4] = assay: as above; type: in vivo, Stellaria media; details: POSTEMERGENCE; for Plant response rating, Chickweed: 0 to 100 scale
Method in brief: as §2

crabgrass [5] = assay: as above; type: in vivo, Digitaria sanguinalis; details: POSTEMERGENCE; for Plant response rating, Crabgrass: 0 to 100 scale
Method in brief: as §2

downy brome = assay: as above; type: in vivo, Bromus tectorum; details: POSTEMERGENCE; for Plant response rating Downy Brome: 0 to 100 scale
Method in brief: as §2

giant foxtail [6] = assay: as above; type: in vivo, Setaria faberii; details: POSTEMERGENCE; for Plant response rating, Giant foxtail: 0 to 100 scale
Method in brief: as §2

wild buckwheat = assay: as above; type: in vivo, Polygonum convolvulus; details: POSTEMERGENCE; for Plant response rating, Wild buckwheat: 0 to 100 scale
Method in brief: as §2

wild oat = assay: as above; type: in vivo, Avena fatua; details: POSTEMERGENCE; for Plant response rating, Wild oat: 0 to 100 scale
Method in brief: as §2

rice = assay: Test C flood test plant response rating 0 to 100; type: in vivo, Oryza sativa; details: for Plant response rating (0 to 100), Rice Japonica: under POSTEMERGENCE head (flood test species); for Plant response rating Rice Japonica: flood test species listed under POSTEMERGENCE, 0 to 100 scale
Method in brief: as §2

duck salad = assay: Test C flood test plant response rating 0 to 100; type: in vivo, Heteranthera limosa; details: for Plant response rating (0 to 100), Duck salad: under POSTEMERGENCE head (flood test species); for Plant response rating Duck salad: flood test species listed under POSTEMERGENCE, 0 to 100 scale
Method in brief: as §2

## CC(C)OC(=O)COc1cc(-c2nn3c(c2Cl)CCCC3)c(F)cc1Cl [Compound 39]
barley; POSTEMERGENCE, Rate 50 g/ha
  Plant response rating, Barley: 4
barley; POSTEMERGENCE, Rate 200 g/ha
  Plant response rating, Barley: 6
barley; PREEMERGENCE, Rate 50 g/ha
  Plant response rating, Barley: 0
barley; Rate 200 g/ha, PREEMERGENCE
  Plant response rating, Barley: 0
barnyardgrass; POSTEMERGENCE, Rate 50 g/ha
  Plant response rating, Barnyardgrass: 4
barnyardgrass; POSTEMERGENCE, Rate 200 g/ha
  Plant response rating, Barnyardgrass: 6
barnyardgrass; PREEMERGENCE, Rate 50 g/ha
  Plant response rating, Barnyardgrass: 0
barnyardgrass; Rate 200 g/ha, PREEMERGENCE
  Plant response rating, Barnyardgrass: 2
Chickweed [1]; POSTEMERGENCE, Rate 50 g/ha
  Plant response rating, Chickweed: 8
Chickweed [1]; POSTEMERGENCE, Rate 200 g/ha
  Plant response rating, Chickweed: 10
Chickweed [1]; PREEMERGENCE, Rate 50 g/ha
  Plant response rating, Chickweed: 0
Chickweed [1]; Rate 200 g/ha, PREEMERGENCE
  Plant response rating, Chickweed: 5
corn; POSTEMERGENCE, Rate 50 g/ha
  Plant response rating, Corn: 5
corn; POSTEMERGENCE, Rate 200 g/ha
  Plant response rating, Corn: 5
corn; PREEMERGENCE, Rate 50 g/ha
  Plant response rating, Corn: 0
corn; Rate 200 g/ha, PREEMERGENCE
  Plant response rating, Corn: 0
Crabgrass [2]; POSTEMERGENCE, Rate 50 g/ha
  Plant response rating, Crabgrass: 5
Crabgrass [2]; POSTEMERGENCE, Rate 200 g/ha
  Plant response rating, Crabgrass: 4
Crabgrass [2]; PREEMERGENCE, Rate 50 g/ha
  Plant response rating, Crabgrass: 0
Crabgrass [2]; Rate 200 g/ha, PREEMERGENCE
  Plant response rating, Crabgrass: 2
Giant foxtail [3]; POSTEMERGENCE, Rate 50 g/ha
  Plant response rating, Giant foxtail: 4
Giant foxtail [3]; PREEMERGENCE, Rate 50 g/ha
  Plant response rating, Giant foxtail: 5
Giant foxtail [3]; Rate 200 g/ha, POSTEMERGENCE
  Plant response rating, Giant foxtail: 5
Giant foxtail [3]; Rate 200 g/ha, PREEMERGENCE
  Plant response rating, Giant foxtail: 2
rape; POSTEMERGENCE, Rate 50 g/ha
  Plant response rating, Rape: 5
rape; PREEMERGENCE, Rate 50 g/ha
  Plant response rating, Rape: 8
rape; Rate 200 g/ha, POSTEMERGENCE
  Plant response rating, Rape: 10
rape; Rate 200 g/ha, PREEMERGENCE
  Plant response rating, Rape: 10
sorghum; POSTEMERGENCE, Rate 50 g/ha
  Plant response rating, Sorghum: 5
sorghum; PREEMERGENCE, Rate 50 g/ha
  Plant response rating, Sorghum: 0
sorghum; Rate 200 g/ha, POSTEMERGENCE
  Plant response rating, Sorghum: 5
sorghum; Rate 200 g/ha, PREEMERGENCE
  Plant response rating, Sorghum: 0
wheat; POSTEMERGENCE, Rate 50 g/ha
  Plant response rating, Wheat: 4
wheat; PREEMERGENCE, Rate 50 g/ha
  Plant response rating, Wheat: 0
wheat; Rate 200 g/ha, POSTEMERGENCE
  Plant response rating, Wheat: 5
wheat; Rate 200 g/ha, PREEMERGENCE
  Plant response rating, Wheat: 0
bedstraw; 62 g/ha
  Plant response rating, Bedstraw: 70
bedstraw; 125 g/ha
  Plant response rating, Bedstraw: 100
bedstraw; Rate 31 g/ha
  Plant response rating (0 to 100), Bedstraw: 60
Chickweed [4]; 62 g/ha
  Plant response rating, Chickweed: 40
Chickweed [4]; 125 g/ha
  Plant response rating, Chickweed: 70
Chickweed [4]; Rate 16 g/ha
  Plant response rating (0 to 100), Chickweed: 20
Chickweed [4]; Rate 31 g/ha
  Plant response rating (0 to 100), Chickweed: 30
Crabgrass [5]; 62 g/ha
  Plant response rating, Crabgrass: 20
Crabgrass [5]; 125 g/ha
  Plant response rating, Crabgrass: 30
Crabgrass [5]; Rate 16 g/ha
  Plant response rating (0 to 100), Crabgrass: 10
Crabgrass [5]; Rate 31 g/ha
  Plant response rating (0 to 100), Crabgrass: 10
Downy brome; 62 g/ha
  Plant response rating Downy Brome: 30
Downy brome; 125 g/ha
  Plant response rating Downy Brome: 40
Downy brome; Rate 16 g/ha
  Plant response rating (0 to 100), Downy Brome: 10
Downy brome; Rate 31 g/ha
  Plant response rating (0 to 100), Downy Brome: 20
Giant foxtail [6]; 62 g/ha
  Plant response rating, Giant foxtail: 30
Giant foxtail [6]; 125 g/ha
  Plant response rating, Giant foxtail: 60
Giant foxtail [6]; Rate 16 g/ha
  Plant response rating (0 to 100), Giant foxtail: 10
Giant foxtail [6]; Rate 31 g/ha
  Plant response rating (0 to 100), Giant foxtail: 20
Wild buckwheat; 62 g/ha
  Plant response rating, Wild buckwheat: 90
Wild buckwheat; 125 g/ha
  Plant response rating, Wild buckwheat: 100
Wild buckwheat; Rate 31 g/ha
  Plant response rating (0 to 100), Wild buckwheat: 70
Wild oat; 62 g/ha
  Plant response rating, Wild oat: 20
Wild oat; 125 g/ha
  Plant response rating, Wild oat: 30
Wild oat; Rate 16 g/ha
  Plant response rating (0 to 100), Wild oat: 10
Wild oat; Rate 31 g/ha
  Plant response rating (0 to 100), Wild oat: 20
rice; Rate 16 g/ha
  Plant response rating (0 to 100), Rice Japonica: 20
rice; Rate 31 g/ha
  Plant response rating (0 to 100), Rice Japonica: 30
rice; 62 g/ha
  Plant response rating Rice Japonica: 30
rice; 125 g/ha
  Plant response rating Rice Japonica: 30
Duck salad; Rate 16 g/ha
  Plant response rating (0 to 100), Duck salad: 0
Duck salad; Rate 31 g/ha
  Plant response rating (0 to 100), Duck salad: 0
Duck salad; 62 g/ha
  Plant response rating Duck salad: 0
Duck salad; 125 g/ha
  Plant response rating Duck salad: 0
